For this assay, the system named is histamine-induced ulcer formation. The assay can be described thus: Inhibition of histamine-induced ulcer formation. It is filed as in vivo, Wister strain rats. To be noted: 20 mg/kg i.v., rats, histamine dihydrochloride 300 mg/kg i.p., 4 hours; for Ulcer coefficient (mean ± S.E.): sum of surface area of ulcer lesion. The method, then: Immediately thereafter, 300 mg/kg of histamine dihydrochloride was administered intraperitoneally (i.p.) F. Burcher et al; [Beith. Path. Anat., 81, 391 (1928)]. Four hours later, each animal was bled to death by decapitation, and the stomach was removed. 7.5 ml of physiological saline was infused into the removed stomach and partially fixed in 10% formalin for 10 minutes. Then, the stomach was incised along the greater curvature. The sum of the surface area of the ulcer lesion on the glandular part of the stomach was designated as the ulcer coefficient.

As to `CN/C(=N/CCSCc1nc[nH]c1C)NC#N` [Cimetidine], the “Inhibition rate (%)” value was found to be 57.6% and the “Ulcer coefficient (mean ± S.E.)” value was 19.1 ± 10.6.
For cyclic histidyllysine the same measures were 66.8% and 14.9 ± 6.0.

For the origin of these results see patent US4637996A, “Antiulcer composition containing a dipeptide compound” (Nippon Zoki Pharmaceutical Co., Ltd., priority 1984, dated 1987).
